Measurements taken from patent US20110142882A1 (priority 2009, published 2011).

Test system: small (about 50 μm-about 90 μm) arterioles of the cremaster muscle
Set-up: species or system male Sprague-Dawley rats
Details: rat, in vivo

## CC[N+](CC)(CC)CCOc1cccc(OCC[N+](CC)(CC)CC)c1OCC[N+](CC)(CC)CC [gallamine triethiodide]
  effect on microvessel diameter: Significant vasoconstriction
  vasodilation over time (time-dependent effects control): No vasodilation
